Laboratory results from patent US20150366890A1, “COMPOSITIONS AND METHODS FOR TREATING FUNGAL INFECTIONS” (TRUSTEES OF BOSTON UNIVERSITY, priority 2013, published 2015).
Like-named read-outs stand apart in the source and are kept apart here.

Key:
Assay type in all cases: cell-based
[1] = system: S. cerevisiae wildtype and deletion strains
S. cerevisiae = test: Mitochondrial activity by MitoTracker Red fluorescence
Protocol: It was next sought to assess the mitochondrial activity of AF-treated fungal cells. Yhe MitoTracker Red dye, which enters the mitochondrial matrix by utilizing the proton motive force and thus labels metabolically active mitochondria in viable cells was used (Arita et al., 2006; Tomas et al., 2011). Exponential phase S. cerevisiae were incubated in glucose-free synthetic complete (SC) media for 30 min and then switched to SC containing 2% glucose or non-fermentable acetate for 1.5 hours.
(§1) Overnight yeast cultures were diluted into the indicated media and grown to an OD600 of 0.2, at which point the AFs were added. Colony forming units (CFU) were measured by plating six serial dilutions onto YPD agar plates. Cells treated with MCZ were washed before serial dilution to stop growth inhibition associated with high concentrations of MCZ. CFU were counted after three days of incubation on agar plates. When indicated, thiourea (Fluka) was added 30 min prior to the addition of AFs. HPF (10 μM) (Invitrogen) and Mito Tracker (1 μM) (Invitrogen) dyes were added to PBS-washed cells at the indicated time points and incubated for 30 min prior to flow cytometry measurements, which were taken on the FACSCalibur (Becton-Dickinson). All experiments described in this section were conducted in 0.5 ml of SDC in 24-well plates incubated at 900 rpm and 37° C. for C. albicans and 30° C. and 300 rpm for S. cerevisiae. TUNEL assays were conducted as previously described (Ribeiro et al., 2006) and are described in detail in the TUNEL section of the Experimental Procedures.

[2] = system: C. albicans wildtype and DNA repair mutants; test: Fungicidal killing, CFU assay; details: C. albicans rad50/rad50 and rad52/rad52, 3 hours of drug exposure
Protocol: Overnight yeast cultures were diluted into the indicated media and grown to an OD600 of 0.2, at which point the AFs were added. Colony forming units (CFU) were measured by plating six serial dilutions onto YPD agar plates.
as §1

SMILES | additive resistance on deleting the remaining citrate synthases in the cit3 background ([1]; S. cerevisiae CIT1/CIT2 deletions in cit3 background) | CFU (24-well colony forming assay), AF susceptibility vs wildtype ([1]; S. cerevisiae PAB103, SDH2 deletion) | CFU (24-well colony forming assay), AF susceptibility vs wildtype ([1]; S. cerevisiae PAB106, FMS1 deletion) | CFU (24-well colony forming assay), AF susceptibility vs wildtype ([1]; S. cerevisiae PAB107, NDE1 deletion) | CFU (24-well colony forming assay), AF susceptibility vs wildtype ([1]; S. cerevisiae PAB112, MNE1 deletion) | CFU (24-well colony forming assay), AF susceptibility vs wildtype ([1]; S. cerevisiae PAB113, FUM1 deletion) | CFU (24-well colony forming assay), AF susceptibility vs wildtype ([1]; S. cerevisiae PAB114, TPK2 deletion) | CFU (24-well colony forming assay), AF susceptibility vs wildtype ([1]; S. cerevisiae PAB119, CIT2 deletion) | CFU (24-well colony forming assay), AF susceptibility vs wildtype ([1]; S. cerevisiae PAB121, SDH1 deletion) | CFU (24-well colony forming assay), AF susceptibility vs wildtype ([1]; S. cerevisiae PAB122, TPK3 deletion) | CFU (24-well colony forming assay), AF susceptibility vs wildtype ([1]; S. cerevisiae PAB124, TPK1 deletion) | CFU (24-well colony forming assay), AF susceptibility vs wildtype ([1]; S. cerevisiae PAB132, CIT3 deletion) | CFU (24-well colony forming assay), AF susceptibility vs wildtype ([1]; S. cerevisiae PAB135, NDI1 deletion) | CFU (24-well colony forming assay), AF susceptibility vs wildtype ([1]; S. cerevisiae PAB145, CIT1 deletion) | CFU (24-well colony forming assay), AF susceptibility vs wildtype ([1]; S. cerevisiae PAB168, RAS1 deletion) | CFU (24-well colony forming assay), AF susceptibility vs wildtype ([1]; S. cerevisiae PAB171, RAS2 deletion) | reduction of killing at 3 hours by thiourea ([1]; S. cerevisiae, 50 mM thiourea for 30 minutes prior to the addition of AF drugs) | increase of MitoTracker fluorescence (S. cerevisiae; drug added to glucose-incubated (SC, 2% glucose) S. cerevisiae) | susceptibility of DSBR mutants compared to wildtype [2] | MitoTracker fluorescence in acetate-incubated vs glucose-incubated cells (S. cerevisiae; S. cerevisiae, SC with non-fermentable acetate, 1.5 hours)
Cc1cc(C2CCCCC2)n(O)c(=O)c1 [CIC, cicloplrox olamine] | not observed | Resistant (″Resistant″ or ″Sensitive″ indicate at least a 5-fold CFU difference from wildtype at the final time point) | Normal | Resistant (″Resistant″ or ″Sensitive″ indicate at least a 5-fold CFU difference from wildtype at the final time point) | Resistant (″Resistant″ or ″Sensitive″ indicate at least a 5-fold CFU difference from wildtype at the final time point) | Resistant (″Resistant″ or ″Sensitive″ indicate at least a 5-fold CFU difference from wildtype at the final time point) | Normal | Resistant (″Resistant″ or ″Sensitive″ indicate at least a 5-fold CFU difference from wildtype at the final time point) | Resistant (″Resistant″ or ″Sensitive″ indicate at least a 5-fold CFU difference from wildtype at the final time point) | Resistant (″Resistant″ or ″Sensitive″ indicate at least a 5-fold CFU difference from wildtype at the final time point) | Resistant (″Resistant″ or ″Sensitive″ indicate at least a 5-fold CFU difference from wildtype at the final time point) | Resistant (″Resistant″ or ″Sensitive″ indicate at least a 5-fold CFU difference from wildtype at the final time point) | Resistant (″Resistant″ or ″Sensitive″ indicate at least a 5-fold CFU difference from wildtype at the final time point) | Resistant (″Resistant″ or ″Sensitive″ indicate at least a 5-fold CFU difference from wildtype at the final time point) | Resistant (″Resistant″ or ″Sensitive″ indicate at least a 5-fold CFU difference from wildtype at the final time point) | Resistant (″Resistant″ or ″Sensitive″ indicate at least a 5-fold CFU difference from wildtype at the final time point) | ~15 fold | 10 fold | particularly susceptible | –
CC(=O)O [acetate] | – | – | – | – | – | – | – | – | – | – | – | – | – | – | – | – | – | – | – | approximately 5 fold
